Laboratory results published in patent US20210388005A1, “FLUORESCENT COMPOUND AND PREPARATION METHOD AND USE FOR THE SAME” (NEUBORON MEDTECH LTD., priority 2019, published 2021).

Columns and labels:
[1] = near-infrared absorption spectrum in ethanol solution; assay type: physicochemical
Protocol: FIG. 3 is a near-infrared absorption spectrum of compound I-1 and compound I-2 in Example 4 in ethanol solution.
(§1) To a single-necked flask is added 300 ml of absolute ethyl alcohol, 6.47 g of 3-bromomethyl phenylboronate indole quaternary ammonium salt, 2-chloro-3-hydroxymethylene cyclohexene carboxaldehyde, and 0.15 g of sodium acetate. The mixture is reacted at 70° C. for 1 h, and spin dried to remove the solvent. The resulting residue is separated by column chromatography, to obtain fluorescent compounds I-1 and I-2. The fluorescent compound I-1 has a maximum fluorescence emission peak at 808 nm when excited at a wavelength of […], and has a near infrared absorption peak in ethanol solution at 785 nm. The fluorescent compound I-2 has a maximum fluorescence emission peak at 811 nm when excited at a wavelength of […], and has a near infrared absorption peak in ethanol solution at 788 nm.

[2] = fluorescence spectrum at room temperature; assay type: physicochemical; conditions: excited at a wavelength
Protocol: as §1

| near infrared absorption peak [1] | maximum fluorescence emission peak [2] | SMILES |
| --- | --- | --- |
| 785 nm | 808 nm | CC1(C)C(/C=C/C2=C(Cl)C(=C/C=C3/N(Cc4cccc(B(O)O)c4)c4ccccc4C3(C)C)/CCC2)=[N+](Cc2cccc(B(O)O)c2)c2ccccc21 [Compound I-1] |
| 788 nm | 811 nm | CC1(C)C(/C=C/C2=C(Cl)C(=C/C=C3/N(Cc4ccccc4)c4ccccc4C3(C)C)/CCC2)=[N+](Cc2cccc(B(O)O)c2)c2ccccc21 [Compound I-2] |
